Experimental data taken from patent US20090291942A1, “IMIDAZO PYRIDINE DERIVATIVES” (priority 2008, published 2009).
Counter-ions that a name gives are not always drawn.

These compounds were tested on VEGF-induced angiogenesis (assay: GPR4 activity in VEGF-induced angiogenesis (angiogenesis growth factor implant model)). Conditions: mice, 10 mg/kg (qd) po, chamber tissue weighed on 4th day after implantation.
Format: in vivo
Protocol: The functional activity of GPR4 was determined in the angiogenesis growth factor implant model. Porous tissue chambers made of perfluoro-alkoxy-Teflon were filled with 0.8% agar and 20 U/ml heparin supplemented with or without 8 μg/ml recombinant human VEGF. The solutions were maintained at 39° C. prior to the filling procedure. Mice were anesthetized using 3% isoflurane inhalation. For subcutaneous implantation, a small skin incision was made at the base of the tail to allow the insertion of an implant trocar. The chamber was implanted under aseptic conditions through the small incision onto the back of the animal. The skin incision was closed by wound clips. On the 4th day after implantation, animals were sacrificed using CO2. Chambers were excised and the vascularized fibrous tissue formed around each implant carefully removed and weighed. Body weight was used to monitor the general condition of the mice. The compounds were applied po at the day of the chamber implantation.
`CCc1nc2c(C)cc(C)nc2n1Cc1ccc(/C=C/CN2CCC(N3CCCCC3)CC2)cc1` [Example 33, 1′-{(E)-3-[4-(2-Ethyl-5,7-dimethyl-imidazo[4,5-b]pyridin-3-ylmethyl)-phenyl]-allyl}-[1,4′]bipiperidinyl dihydrochloride] was tested, and the Δ tissue weight was 45%.

The compounds below were run against T1, human GPR4 (Homo sapiens, UniProt P46093) (assay: Cell-based assay for human GPR4 activity (pH-induced cAMP formation, HTRF)). Conditions: HeLa cells stably expressing human GPR4, pH-induced cAMP formation.
T1 construct: expressed in transfected cells
T1 sequence (P46093 whole entry): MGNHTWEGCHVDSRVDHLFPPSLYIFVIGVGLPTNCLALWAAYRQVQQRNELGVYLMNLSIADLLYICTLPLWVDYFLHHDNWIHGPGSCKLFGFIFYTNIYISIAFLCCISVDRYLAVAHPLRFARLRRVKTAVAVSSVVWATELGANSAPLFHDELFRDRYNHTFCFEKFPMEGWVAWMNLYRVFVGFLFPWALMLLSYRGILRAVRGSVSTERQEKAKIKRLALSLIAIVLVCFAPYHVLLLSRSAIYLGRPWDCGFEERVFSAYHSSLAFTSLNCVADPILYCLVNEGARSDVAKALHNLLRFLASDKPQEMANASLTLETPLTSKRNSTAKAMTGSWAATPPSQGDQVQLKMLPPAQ
In short: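 HeLa cells stably expressing human GPR4, pre-incubated 15 min at room temperature with compound in pH 8 buffer containing 2 mM IBMX. Buffer B added to set the final stimulation pH, then a further 15 min at room temperature; cAMP read by HTRF.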
Compound `CCc1nc2c(C)cc(C)nc2n1Cc1ccc(/C=C/CN2CCN(CCN(C)C)CC2)cc1` [Example 58, [2-(4-{(E)-3-[4-(2-Ethyl-5,7-dimethyl-imidazo[4,5-b]pyridin-3-ylmethyl)-phenyl]-allyl}-piperazin-1-yl)-ethyl]-dimethyl-amine trihydrochloride] has an IC50 of 255 nM.
`CCOCCN1CCN(C/C=C/c2ccc(Cn3c(CC)nc4c(C)cc(C)nc43)cc2)CC1` [Example 63, 3-(4-{(E)-3-[4-(2-Ethoxy-ethyl)-piperazin-1-yl]-propenyl}-benzyl)-2-ethyl-5,7-dimethyl-3H-imidazo[4,5-b]pyridine] showed an IC50 of 829 nM.
`CCc1nc2c(C)cc(C)nc2n1Cc1ccc(/C=C/CN2CCN(CCCF)CC2)cc1` [Example 68, 2-Ethyl-3-(4-{(E)-3-[4-(3-fluoro-propyl)-piperazin-1-yl]-propenyl}-benzyl)-5,7-dimethyl-3H-imidazo[4,5-b]pyridine] showed an IC50 of 535 nM.
For `CCc1nc2c(C)cc(C)nc2n1Cc1ccc(/C=C/CN2CCN(CC(C)C)CC2)cc1` [Example 50, 2-Ethyl-3-{4-[(E)-3-(4-isobutyl-piperazin-1-yl)-propenyl]-benzyl}-5,7-dimethyl-3H-imidazo[4,5-b]pyridine dihydrochloride], the IC50 was 463 nM.
With `Cc1cc(C)c2nc(C(F)(F)F)n(Cc3ccc(/C=C/CN4CCN(C(C)(C)C)CC4)cc3)c2n1` [Example 92, 3-{4-[(E)-3-(4-tert-Butyl-piperazin-1-yl)-propenyl]-benzyl}-5,7-dimethyl-2-trifluoromethyl-3H-imidazo[4,5-b]pyridine] the IC50 was 30 nM.
Compound `CCc1nc2c(C)cc(C)nc2n1Cc1ccc(/C=C/CN2CCC(N3CCCCC3)CC2)cc1` [Example 33, 1′-{(E)-3-[4-(2-Ethyl-5,7-dimethyl-imidazo[4,5-b]pyridin-3-ylmethyl)-phenyl]-allyl}-[1,4′]bipiperidinyl dihydrochloride] has an IC50 of 71 nM.
Work on `CCc1nc2c(C)cc(C)nc2n1Cc1ccc(/C=C/CN2CCOC(CNC(=O)OC(C)(C)C)C2)cc1` (stereo not shown) [Example 77, (4-{(E)-3-[4-(2-Ethyl-5,7-dimethyl-imidazo[4,5-b]pyridin-3-ylmethyl)-phenyl]-allyl}-morpholin-2-ylmethyl)-carbamic acid tert-butyl ester] yielded an IC50 of 512 nM.
For `CCc1nc2c(C)cc(C)nc2n1Cc1ccc(/C=C/CN2CCC(OCC(=O)NC)CC2)cc1` [Example 38, 2-(1-{(E)-3-[4-(2-Ethyl-5,7-dimethyl-imidazo[4,5-b]pyridin-3-ylmethyl)-phenyl]-allyl}-piperidin-4-yloxy)-N-methyl-acetamide], the IC50 was 718 nM.
Compound `CCc1nc2c(C)cc(C)nc2n1Cc1ccc(/C=C(\F)CN2CCC(N3CCCCC3)CC2)cc1` [Example 93, 1′-{(Z)-3-[4-(2-Ethyl-5,7-dimethyl-imidazo[4,5-b]pyridin-3-ylmethyl)-phenyl]-2-fluoro-allyl}-[1,4′]bipiperidinyl dihydrochloride] has an IC50 of 29 nM.
Work on `Cc1cc(C)c2nc(C(F)(F)F)n(Cc3ccc(/C=C/CN4CCC(N5CCN(C)CC5)CC4)cc3)c2n1` [Example 88, 5,7-Dimethyl-3-(4-{(E)-3-[4-(4-methyl-piperazin-1-yl)-piperidin-1-yl]-propenyl}-benzyl)-2-trifluoromethyl-3H-imidazo[4,5-b]pyridine trihydrochloride] yielded an IC50 of 199 nM.
`CCc1nc2c(C)cc(C)nc2n1Cc1ccc(CCCN2C[C@H]3C[C@@H]2CN3CC(C)C)cc1` [Example 27, 2-Ethyl-3-{4-[3-((1R,4R)-5-isobutyl-2,5-diaza-bicyclo[2.2.1]hept-2-yl)-propyl]-benzyl}-5,7-dimethyl-3H-imidazo[4,5-b]pyridine dihydrochloride] showed an IC50 of 411 nM.
`CCc1nc2c(C)cc(C)nc2n1Cc1ccc(CCCN2CCN(C3CC3)CC2)cc1` [Example 9, 3-{4-[3-(4-Cyclopropyl-piperazin-1-yl)-propyl]-benzyl}-2-ethyl-5,7-dimethyl-3H-imidazo[4,5-b]pyridine] gave an IC50 of 341 nM.
`CCc1nc2c(C)cc(C)nc2n1Cc1ccc(/C=C/CN2CCC(N3CCCC3)CC2)cc1` [Example 32, 2-Ethyl-5,7-dimethyl-3-{4-[(E)-3-(4-pyrrolidin-1-yl-piperidin-1-yl)-propenyl]-benzyl}-3H-imidazo[4,5-b]pyridine] was tested, and the IC50 was 177 nM.
Compound `CCc1nc2c(C)cc(C)nc2n1Cc1ccc(CCCN2CCN(C(C)(C)C)CC2)cc1` [Example 12, 3-{4-[3-(4-tert-Butyl-piperazin-1-yl)-propyl]-benzyl}-2-ethyl-5,7-dimethyl-3H-imidazo[4,5-b]pyridine] has an IC50 of 53 nM.
In the case of `CCc1nc2c(C)cc(C)nc2n1Cc1ccc(CCCN2CCN(CCOC)CC2)cc1` [Example 20, 2-Ethyl-3-(4-{3-[4-(2-methoxy-ethyl)-piperazin-1-yl]-propyl}-benzyl)-5,7-dimethyl-3H-imidazo[4,5-b]pyridine dihydrochloride], the IC50 is reported as 953 nM.
With `CCc1nc2c(C)cc(C)nc2n1Cc1ccc(/C=C/CN2CCN(CCN3CCOCC3)CC2)cc1` [Example 66, 2-Ethyl-5,7-dimethyl-3-(4-{(E)-3-[4-(2-morpholin-4-yl-ethyl)-piperazin-1-yl]-propenyl}-benzyl)-3H-imidazo[4,5-b]pyridine trihydrochloride] the IC50 was 222 nM.
Work on `CCc1nc2c(C)cc(C)nc2n1Cc1ccc(/C=C/CCN2CCC(N3CCCCC3)CC2)cc1` [Example 105, 1′-{(E)-4-[4-(2-Ethyl-5,7-dimethyl-imidazo[4,5-b]pyridin-3-ylmethyl)-phenyl]-but-3-enyl}-[1,4′]bipiperidine] yielded an IC50 of 115 nM.
Compound `CCCCN1CCN(C/C=C/c2ccc(Cn3c(CC)nc4c(C)cc(C)nc43)cc2)CC1` [Example 48, 3-{4-[(E)-3-(4-Butyl-piperazin-1-yl)-propenyl]-benzyl}-2-ethyl-5,7-dimethyl-3H-imidazo[4,5-b]pyridine dihydrochloride] has an IC50 of 194 nM.
`CCc1nc2c(C)cc(C)nc2n1Cc1ccc(/C=C/CN2CCN(Cc3ccc(OC)c(OC)c3)CC2)cc1` [Example 67, 3-(4-{(E)-3-[4-(3,4-Dimethoxy-benzyl)-piperazin-1-yl]-propenyl}-benzyl)-2-ethyl-5,7-dimethyl-3H-imidazo[4,5-b]pyridine trihydrochloride] showed an IC50 of 407 nM.
`CCc1nc2c(C)cc(C)nc2n1Cc1ccc(/C=C/CCn2ccnc2)cc1` [Example 109] was tested, and the IC50 was 370 nM.

Each compound was assayed on mouse antigen-induced arthritis (assay: Mouse antigen-induced arthritis model). Conditions: female OFA-1 mice, 50 mg/kg (bid) po from day 0 for 7 days, R/L knee swelling ratio AUC vs control.
Format: in vivo
Protocol: c) GPR4 Activity in Mouse Antigen-Induced Arthritis Model
Female OFA-1 mice were sensitized i.d. on the back at two sites to methylated bovine serum albumin (mBSA) homogenize 1:1 with complete Freund's adjuvant on days—21 and —14 (0.1 ml containing 1 mg/ml mBSA). On day 0, the right knee receives 10 μl of 10 mg/ml mBSA in 5% glucose solution (antigen-injected knee), while the left knee receives 10 μl of 5% glucose solution alone (vehicle-injected knee). The diameters of the left and right knees were then measured using callipers immediately after the intra-articular injections and again on days 2, 4, 7, 9, 11 and 14. Vehicle and compounds were applied po starting at day 0 for 7 days. Right knee swelling was evaluated relative to left knee swelling, and the R/L knee swelling ratio plotted against time to give area under the curve (AUC) graphs for control and treatment groups. The percentage inhibition of the individual treatment group AUCs were calculated vs the control group AUC (0% inhibition) using an excel spreadsheet. On day 7, the mice were killed by CO2 inhalation and the right and left knees removed and processed for histological analysis.
For `CCc1nc2c(C)cc(C)nc2n1Cc1ccc(/C=C/CN2CCC(N3CCCCC3)CC2)cc1` [Example 33, 1′-{(E)-3-[4-(2-Ethyl-5,7-dimethyl-imidazo[4,5-b]pyridin-3-ylmethyl)-phenyl]-allyl}-[1,4′]bipiperidinyl dihydrochloride], the Δ swelling ratio was 59%.
